Residues, ends and D or L forms follow the SMILES beside them.

In assay [1] the target is Delta-type opioid receptor (Rattus norvegicus, UniProt P33533). Nature of the assay: Inhibition of [3H]naloxone binding to rat brain homogenate Opioid receptor delta.
A further assay has as its target Mu-type opioid receptor (Rattus norvegicus, UniProt P33535). Nature of the assay: Inhibition of [3H]naloxone binding to rat brain homogenate Opioid receptor mu.

Delta-type opioid receptor, sequence (P33533 whole entry): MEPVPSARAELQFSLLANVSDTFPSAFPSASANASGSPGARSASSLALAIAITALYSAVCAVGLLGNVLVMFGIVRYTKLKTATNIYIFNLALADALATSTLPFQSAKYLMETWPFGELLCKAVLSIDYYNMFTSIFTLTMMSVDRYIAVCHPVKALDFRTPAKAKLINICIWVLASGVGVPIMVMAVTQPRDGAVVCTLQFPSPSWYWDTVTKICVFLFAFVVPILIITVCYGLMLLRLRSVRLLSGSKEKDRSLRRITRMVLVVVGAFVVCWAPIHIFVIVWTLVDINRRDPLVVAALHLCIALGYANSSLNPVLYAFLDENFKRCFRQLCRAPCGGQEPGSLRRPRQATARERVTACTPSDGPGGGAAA
Mu-type opioid receptor, sequence (P33535 whole entry): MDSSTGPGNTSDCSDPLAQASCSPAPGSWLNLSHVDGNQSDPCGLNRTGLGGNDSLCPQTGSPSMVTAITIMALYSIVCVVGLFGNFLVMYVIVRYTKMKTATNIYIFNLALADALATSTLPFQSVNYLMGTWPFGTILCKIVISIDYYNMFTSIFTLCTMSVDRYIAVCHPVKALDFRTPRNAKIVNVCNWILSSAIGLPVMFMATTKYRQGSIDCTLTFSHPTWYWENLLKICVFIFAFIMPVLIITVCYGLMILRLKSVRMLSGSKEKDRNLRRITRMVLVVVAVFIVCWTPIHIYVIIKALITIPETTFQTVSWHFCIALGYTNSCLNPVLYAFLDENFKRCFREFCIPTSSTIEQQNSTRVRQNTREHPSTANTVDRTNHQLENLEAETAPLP

Usually Ki stands for a dissociation constant, usually derived from enzyme kinetics or from competition with a known ligand. A higher Ki goes with weaker binding. Consider `C[C@@H](NC(=O)[C@@H]1Cc2ccc(O)cc2CN1)C(=O)N[C@@H](Cc1ccccc1)C(=O)NCC(=O)N[C@@H](Cc1ccc(O)cc1)C(=O)N1CCC[C@H]1C(=O)N[C@@H](CO)C(N)=O`, for which the Ki in assay [1] was above 10000 nM; at Mu-type opioid receptor, 1620 nM.

Molecule `C[C@@H](NC(=O)[C@@H](N)Cc1ccc(O)cc1)C(=O)N[C@@H](Cc1ccccc1)C(=O)NCC(=O)N[C@@H](Cc1ccc(O)cc1)C(=O)N1CCC[C@H]1C(=O)N[C@@H](CO)C(N)=O` [DERMORPHIN] displayed a Ki at Mu-type opioid receptor of 2.4 nM. For `C[C@@H](NC(=O)[C@@H]1Cc2cc(O)ccc2CN1)C(=O)N[C@@H](Cc1ccccc1)C(=O)N[C@@H](Cc1ccccc1)C(N)=O`, the Ki in assay [1] is above 10000 nM; at Mu-type opioid receptor, 57.8 nM. For the molecule `C[C@@H](NC(=O)[C@@H]1Cc2cc(O)ccc2CN1)C(=O)N[C@@H](Cc1ccccc1)C(=O)NCC(=O)N[C@@H](Cc1ccc(O)cc1)C(=O)N1CCC[C@H]1C(=O)N[C@@H](CO)C(N)=O`, the values for the Ki (in assay [1]; at Mu-type opioid receptor) were above 10000 nM and 253 nM, respectively.

In the case of `C[C@@H](NC(=O)[C@@H](N)Cc1ccc(O)cc1)C(=O)N[C@@H](Cc1ccccc1)C(=O)N[C@@H](Cc1ccccc1)C(N)=O` (HELM PEPTIDE1{Y.[dA].F.F.[am]}$$$$V2.0), the affinity in assay [1], expressed as Ki, was 1820 nM. As to `NC(=O)[C@H](Cc1ccccc1)NC(=O)[C@H](Cc1ccccc1)NC(=O)[C@@H]1CCCN1C(=O)[C@@H]1Cc2cc(O)ccc2CN1`, the Ki in assay [1] is above 10000 nM; at Mu-type opioid receptor, 216 nM. Taken in the same sequence, the figures for `CC(C)[C@H](NC(=O)[C@H](CC(=O)O)NC(=O)[C@H](Cc1ccccc1)NC(=O)[C@@H](C)NC(=O)[C@@H]1Cc2ccc(O)cc2CN1)C(=O)N[C@H](C(=O)NCC(N)=O)C(C)C` were 304 nM and above 10000 nM. On the same counts, the results for `CC(C)[C@H](NC(=O)[C@H](CC(=O)O)NC(=O)[C@H](Cc1ccccc1)NC(=O)[C@@H](C)NC(=O)[C@@H]1Cc2cc(O)ccc2CN1)C(=O)N[C@H](C(=O)NCC(N)=O)C(C)C` are 10.4 nM and above 10000 nM.

Take `CC(C)[C@H](NC(=O)[C@H](CC(=O)O)NC(=O)[C@H](Cc1ccccc1)NC(=O)[C@@H](C)NC(=O)[C@@H](N)Cc1ccc(O)cc1)C(=O)N[C@H](C(=O)NCC(N)=O)C(C)C` [DELTORPHIN C]: the Ki was found to be 0.73 nM in assay [1] and 1700 nM on Mu-type opioid receptor.

For the origin of these results see ChEMBL document CHEMBL1144431, “6-Hydroxy-1,2,3,4-tetrahydro-isoquinoline-3-carboxylic acid mimics active conformation of tyrosine in opioid peptides” (Bioorg Med Chem Lett, 2005).
